Source: US9322022B2, “Inhibition of DNA2 in fanconi anemia” (California Institute of Technology, priority 2013, dated 2016)

Assays:
[1] = system: PD20 FANCD2−/− cells complemented with wild-type FANCD2; assay: Clonogenic assay for cisplatin sensitivity; assay type: cell-based, human
Experimental: (§1) The genetic interaction between FANCD2 and DNA2 was examined in the repair of cisplatin- or formaldehyde-induced damage. Using PD20 FANCD2^−/− cells complemented with wild-type FANCD2 or an empty vector, DNA2 was depleted using shRNA techniques (FIG. 2A). As shown, DNA2 was reduced to levels undetectable by western blotting. The cell lines were exposed to cisplatin, and a clonogenic assay was performed (FIG. 2B). […] This rescue is stronger than previously reported, consistent with lower residual DNA2 levels detected by western blotting in the knockdowns (Karanja et al., 2012, Cell Cycle, 11:3983-3996, the entire contents of which are herein incorporated by reference.)
(§2) For acute exposure, formaldehyde (0, 40, 80, 160, 320 μM) was added for 4 h in PBS. Cells were washed in PBS and grown for 5 days. For chronic exposure, cells were continuously grown in formaldehyde (0, 30, 60, 90, 120 μM) for 6 days. To determine viability, cells were fixed and stained with crystal violet and scanned with a Licor Odyssey scanner (LiCor Biosciences). The surviving fraction was determined by comparing treated with the non-treated controls. […] Surviving fraction was determined by comparing treated with the non-treated controls.

PD20 FANCD2−/− cells = assay: Clonogenic assay for cisplatin sensitivity; assay type: cell-based, human; conditions: FANCD2−/− cells (empty vector)
Experimental: as §1, §2

N.N.[Cl][Pt][Cl] [cisplatin]
sensitivity of cells to cisplatin (clonogenic survival) [1]: resistant
sensitivity of cells to cisplatin (clonogenic survival) (PD20 FANCD2−/− cells): very sensitive
